Measured values published in patent US12338243B2, “P2X7 modulators” (JANSSEN PHARMACEUTICA NV, priority 2014, dated 2025).

How the values were obtained:
P2X7 [1] = molecular target: T1, P2X7 (Homo sapiens, UniProt Q99572); test: Ca2+ flux (FLIPR) in 1321N1 cells expressing recombinant human P2X7 channel; type: cell-based; set-up: expressed in transfected cells; host or cells: 1321N1 cells; conditions: 250 μM BzATP
T1 sequence (Q99572 1-595): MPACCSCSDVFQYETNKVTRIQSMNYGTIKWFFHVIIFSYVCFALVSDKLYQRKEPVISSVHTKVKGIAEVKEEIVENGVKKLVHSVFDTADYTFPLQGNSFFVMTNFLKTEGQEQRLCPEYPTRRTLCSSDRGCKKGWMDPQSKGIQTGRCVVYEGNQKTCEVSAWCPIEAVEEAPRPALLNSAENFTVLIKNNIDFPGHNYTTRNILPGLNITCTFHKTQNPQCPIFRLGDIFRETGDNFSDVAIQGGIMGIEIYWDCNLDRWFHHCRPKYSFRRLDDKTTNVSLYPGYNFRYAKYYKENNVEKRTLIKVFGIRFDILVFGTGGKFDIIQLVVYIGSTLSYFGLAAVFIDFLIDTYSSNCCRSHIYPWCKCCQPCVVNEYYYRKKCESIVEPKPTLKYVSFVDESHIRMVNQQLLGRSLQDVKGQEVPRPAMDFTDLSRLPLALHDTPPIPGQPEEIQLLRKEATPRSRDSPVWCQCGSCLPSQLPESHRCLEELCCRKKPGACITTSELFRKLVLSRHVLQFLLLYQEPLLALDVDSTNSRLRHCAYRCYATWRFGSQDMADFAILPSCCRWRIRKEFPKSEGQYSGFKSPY
Summary of the method: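 1321N1 cells expressing recombinant human P2X7, loaded 60 min with Calcium-4 dye in HEPES buffer pH 7.40 (1 mM CaCl2, 1 mM MgCl2), preincubated 30 min with compounds. Fluorescence change recorded 180 seconds after agonist addition.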

rat P2X7 [2] = molecular target: T2, rat P2X7 (Rattus norvegicus, UniProt Q64663); test: Radioligand binding, rat P2X7-1321N1 cell membranes, tritiated A-804598
T2 sequence (Q64663 1-595): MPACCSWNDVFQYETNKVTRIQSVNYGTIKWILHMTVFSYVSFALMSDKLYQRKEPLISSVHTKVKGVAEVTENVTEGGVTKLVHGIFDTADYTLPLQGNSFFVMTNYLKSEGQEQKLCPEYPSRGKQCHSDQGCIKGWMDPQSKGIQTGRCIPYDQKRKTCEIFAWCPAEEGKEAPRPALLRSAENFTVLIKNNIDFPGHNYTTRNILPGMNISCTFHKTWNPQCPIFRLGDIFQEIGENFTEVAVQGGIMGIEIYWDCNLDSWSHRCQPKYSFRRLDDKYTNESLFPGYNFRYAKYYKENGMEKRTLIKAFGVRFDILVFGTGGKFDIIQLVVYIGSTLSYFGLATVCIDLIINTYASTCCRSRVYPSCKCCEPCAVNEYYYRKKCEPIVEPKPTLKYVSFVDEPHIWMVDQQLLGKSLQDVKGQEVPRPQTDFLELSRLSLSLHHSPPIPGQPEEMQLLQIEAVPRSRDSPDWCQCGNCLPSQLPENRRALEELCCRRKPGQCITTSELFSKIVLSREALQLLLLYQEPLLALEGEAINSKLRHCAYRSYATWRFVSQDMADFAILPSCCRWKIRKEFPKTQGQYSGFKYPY
From the text: (§3) P2X7 Antagonism in Recombinant Human P2X7 Cells or Recombinant Rat P2X7 Cells: (a) Ca^2+ Flux and (b) Radioligand Binding

P2X7 [3] = molecular target: T1, P2X7; test: Radioligand binding, human P2X7-1321N1 cell membranes, tritiated A-804598
From the text: as §3

rat P2X7 [4] = molecular target: T2, rat P2X7; test: Ca2+ flux (FLIPR) in 1321N1 cells expressing recombinant rat P2X7 channel; conditions: FLIPR (rat) IC50 (μM), 250 μM BzATP
P2X7 [5] = molecular target: T1, P2X7; test: P2X7 antagonism in human PBMCs (IL-1β release, ELISA); type: cell-based; set-up: PBMCs were isolated from blood using a Ficoll density gradient technique; endogenous in cells; host or cells: human PBMCs / human whole blood from donors; conditions: LPS 30 ng/ml + 0.5 mM Bz-ATP, compound 10 μM
Experimental: (§1) P2X7 Antagonism in Human Peripheral Blood Mononuclear Cells (PBMCs) and Human Whole Blood.
(§2) Human blood was collected using a blood donor program. PBMCs were isolated from blood using a Ficoll density gradient technique. Briefly, blood was laid on Ficoll solution and centrifuged at RT for 20 minutes at 2000 rpm. The buffy layer (between red blood cells and plasma) was carefully collected by aspiration, washed with PBS and centrifuged again at 1500 rpm for 15 minutes. The resulting cell pellet was washed and plated on 96 well-plates for experiments. For the Human Whole Blood experiments, 150 μl of human blood was platted on 96 well-plates. Lipopolysaccharide (LPS) (30 ng/ml) was added to each well and incubated for 1 hour. Test compounds were then added and incubated for 30 minutes. The P2X7 agonist, 2′(3′)-O-(4-benzoylbenzoyl) adenosine 5′ triphosphate (Bz-ATP) was then added at a final concentration of 0.5 mM (PBMC) or 1 mM (blood). Cells were incubated for an additional 1.5 hours. At that point, supernatant was collected and stored for IL-1β assay using manufacturer's protocol for enzyme-linked immunosorbent assay (ELISA). Data was expressed as percent control, where control is defined as the difference in IL-1β release in LPS+Bz-ATP samples and LPS only samples. Data was plotted as response (% control) versus concentration to generate IC50 values. […] Data are analyzed and graphed on Graphpad Prism 5. For analysis, each concentration point is averaged from triplicate values and the averaged values are plotted on Graphpad Prism. The IC50 for each compound is then uploaded into 3DX.

P2X7 [6] = molecular target: T1, P2X7; test: P2X7 antagonism in human whole blood (IL-1β release, ELISA); type: cell-based; set-up: PBMCs were isolated from blood using a Ficoll density gradient technique; endogenous in cells; host or cells: human PBMCs / human whole blood from donors; conditions: LPS 30 ng/ml + 1 mM Bz-ATP
Experimental: as §1, §2

Row | Compound | IC50 (P2X7 [1]) [nM] | Ki (rat P2X7 [2]) [nM] | Ki (P2X7 [3]) [nM] | IC50 (rat P2X7 [4]) [µM] | PBMC 10 μM (% control) (P2X7 [5]) | IC50 (P2X7 [6]) [nM]
1 | O=C(c1ccnc(C(F)(F)F)c1Cl)N1CCn2c(nnc2C(F)(F)F)C1c1ccccc1 (single isomer, unassigned) [Example 99, (R*)-(3-chloro-2-(trifluoromethyl)pyridin-4-yl)(8-phenyl-3-(trifluoromethyl)-5,6-dihydro-[1,2,4]triazolo[4,3-a]pyrazin-7(8H)-yl)methanone] | 9.1 | 6.3 | 17.4 | 0.0348 | 4.9 | –
2 | C[C@H]1Cn2c(nnc2-c2ccco2)CN1C(=O)c1cccc(C(F)(F)F)c1Cl [Example 24, (S)-(2-chloro-3-(trifluoromethyl)phenyl)(3-(furan-2-yl)-6-methyl-5,6-dihydro-[1,2,4]triazolo[4,3-a]pyrazin-7(8H)-yl)methanone] | 6.8 | – | 21.9 | 0.0047 | – | 25
3 | Cc1nnc2n1CCN(C(=O)c1cccc(C(F)(F)F)c1Cl)C2c1ccccc1 (racemic) [Example 53, (2-chloro-3-(trifluoromethyl)phenyl)(3-methyl-8-phenyl-5,6-dihydro-[1,2,4]triazolo[4,3-a]pyrazin-7(8H)-yl)methanone] | 2 | 39.8 | 15.8 | 0.0628 | – | 79
4 | C[C@H]1Cn2c(nnc2-c2cc(F)c(F)c(F)c2)CN1C(=O)c1cccc(C(F)(F)F)c1Cl [Example 30, (S)-(2-chloro-3-(trifluoromethyl)phenyl)(6-methyl-3-(3,4,5-trifluorophenyl)-5,6-dihydro-[1,2,4]triazolo[4,3-a]pyrazin-7(8H)-yl)methanone] | 83.8 | – | 50.1 | 0.927 | – | 1590
